Patent EP0939136A1, “Assay for predicting the angiographic response to lipid-lowering therapy in patients” (Academisch Ziekenhuis bij de Universiteit van Amsterdam, priority 1998, dated 1999)

Key:
Assay type in all cases: in vivo, male patients
[1] = REGRESS trial: computer-assisted quantitative coronary angiography (MSD, MOD); settings: for MOD decrease: median (IQR) / MSD decrease: mean (SD): 40 mg/day, two years, larger figure = more progression of atherosclerosis
Procedure: (§1) 807 Male patients participating in the Regression Growth Evaluation Statin Study (REGRESS), which has previously been described in detail (Kuivenhoven et al., Arterioscler. Thromb. Vasc. Biol. 17:560-568 (1997)) were prospectively studied. In short, study participants were required to have at least one coronary artery with a stenosis off >50 percent as assessed by coronary angiography, a plasma total cholesterol concentration of 155-310 mg per deciliter (4 to 8 millimole per liter) and triglycerides of 350 mg per deciliter(< 4 millimole per liter). Patients were subsequently randomized to treatment with pravastatin sodium (Pravachol®; 40 mg/day ) or to placebo for a period of two years. The placebo group contained 396 patients and the group treated with pravastatin contained 411 patients.
Computer-assisted quantitative coronary angiography was carried out at the start and at the end of the study. The two following primary measures of outcome were used: (a) the change in the average Mean Segment Diameter (MSD) per patient (also known as Mean Lumen Diameter) reflecting diffuse changes of atherosclerosis, and (b) the change in the average Minimum Obstruction Diameter […]) which reflects the focal change of atherosclerosis. Given these definitions, one should note that a greater decrease in MSD and/or MOD reflects more progression of coronary atherosclerosis.
(§2) The differences between carriers of the three TaqIB genotypes (i.e. B1B1, B1B2, and B2B2) were tested using one-way ANOVA or Pearson's Chi-square test. Changes in lipids, lipoproteins and angiographic parameters during the trial period were quantified with means and standard deviations, and the differences within the two medication groups were tested using one-way covariance analysis with baseline levels as covariates.
The interaction between the three CETP TaqIB genotypes and medication (placebo/pravastatin) was tested using the interaction test of two-way covariance analysis. It was checked whether the above interaction between genotype and medication was dependent of baseline HDL cholesterol concentration, changes in HDL during the trial, baseline MSD, baseline MOD, and each of hepatic lipase or lipoprotein lipase activity by using these as covariates in two-way covariance analysis. The latter analysis was also carried out to test if the significant differences in decrease in either MSD or MOD as identified amongst the TaqIB subgroups in the placebo group, were dependent on the above parameters.

CETP = experiment: Plasma CETP concentration by solid phase radioimmunoassay; settings: 68 pravastatin-treated subjects, P<0.001
Procedure: as §1
Plasma lipids and lipoproteins were measured using standard techniques (Groenemeyer et al., Circulation 95:2628-2653 (1997)). Due to a lack of sufficient aliquots of plasma, CETP concentrations were determined in 237 patients at baseline, and in only 68 pravastatin-treated subjects at the end of the trial. […]

[2] = REGRESS trial: events (death and myocardial infarction); settings: 40 mg/day, two years
Procedure: as §1
Differences in rate of events between genotypes were analyzed with Pearson Chi-square tests within the medication groups, and the interaction between genotype and medication with logistic regression. Within each of the patient groups, the Hardy-Weinberg equilibrium was tested by means of gene counting and χ^2 analysis. Throughout, a P value of 0.05 was interpreted as representing a statistically significant difference. All statistical analyses were carried out with the Statistical Analysis System (SAS, version 6.1, SAS Institute, Cari, NC) and adapted from the EGRET Manual, (Statistical and Epidemiological Research Corporation, 1991, Seattle, Washington, USA).
Abbreviations: MSD = mean segment Diameter; MOD = minimum obstruction diameter (Note: A larger figure for either a decrease in mean segment diameter (MSD) or minimum obstruction diameter (MOD) indicates more progression of atherosclerosis). SD = standard deviation; IQR = interquartile range; * P value of covariance analysis of the change measures with baseline values as covariate, or chi-square test (where appropriate), comparing the three CETP-TaqIB genotypes; ^† P value of the interaction test of the interaction between treatment (placebo/pravastatin) and the CETP TaqIB genotype (B1B1-B1B2-B2B2) of covariance analysis with baseline values as covariate or of logistic regression, where appropriate. P values while comparing TaqIB subgroup of the placebo group with the pravastatin group: ^‡ P<0.001; ^§ P<0.38; ^¶ P<0.30; ^¥ P<0.002; ** P<0.01; ^†† P<0.48. ? Events are defined as death and myocardial infarction. For conversion from mg.dL^-1 to mmol.L^-1 for total cholesterol, LDL cholesterol and HDL cholesterol levels, multiply by factor 0.02586. For conversion of triglyceride levels from mg.dL^-1 to mmol.L^-1, use 0.01129. [formula] [formula] [formula]

[3] = REGRESS trial: in-trial changes in plasma lipids and lipoproteins; settings: 40 mg/day, two years
Procedure: as §1
Plasma lipids and lipoproteins were measured using standard techniques (Groenemeyer et al., Circulation 95:2628-2653 (1997)). Due to a lack of sufficient aliquots of plasma, CETP concentrations were determined in 237 patients at baseline, and in only 68 pravastatin-treated subjects at the end of the trial. These measurements were performed by solid phase radioimmunoassay using recombinant human protein (provided by Dr. A.Tall; Columbia University, New York) as standard and a CETP monoclonal antibody, TP2 (produced by Dr. R. Milne; University of Ottawa Heart Institute; Ottawa, McPherson et al., Arterioscler. Thromb 11:797-804 (1991). In addition, the lipase and lipoprotein lipase activities were measured as reported (Groenemeyer et al., supra).
as §2

[4] = CETP TaqIB genotype B1B1 (n=136)
[5] = CETP TaqIB genotype B1B2 (n=212)
[6] = CETP TaqIB genotype B2B2 (n=63)

With `CC[C@H](C)C(=O)O[C@H]1C[C@H](O)C=C2C=C[C@H](C)[C@H](CC[C@@H](O)C[C@@H](O)CC(=O)O)[C@H]21` [Pravastatin, pravastatin sodium] the “progression of coronary atherosclerosis compared with counterparts in the placebo group” value ([1]; B2B2 homozygotes, end of the study) was “statistically non-significant larger progression”, the “MOD decrease: median (IQR)” value [1, 4] was 0.01 (.19) mm and the “MSD decrease: mean (SD)” value [1, 4] was 0.05 (.16) mm. The “MOD decrease: median (IQR)” value [1, 5] was 0.04 (.21) mm, the “MSD decrease: mean (SD)” value [1, 5] was 0.07 (.20) mm and the “MOD decrease: median (IQR)” value [1, 6] was 0.04 (.22) mm. For the same compound, the “MSD decrease: mean (SD)” value [1, 6] was 0.09 (.16) mm, the “progression of coronary atherosclerosis compared with counterparts in the placebo group” value ([1]; carriers of one B1 allele (B1B2), MOD, P<0.01) was “significantly less focal atherosclerosis” and the “progression of coronary atherosclerosis compared with counterparts in the placebo group” value ([1]; carriers of two B1 alleles (B1B1), smaller decreases of MSD and MOD (P<0.001, P<0.002)) was “significantly less progression of coronary atherosclerosis”. For the same compound, the “plasma CETP concentration” value (CETP; end of the trial (baseline 2.03±0.53)) was 1.71±0.46 µg per milliliter, the “reduction in plasma CETP concentrations” value (CETP; end of the trial compared with baseline) was 16% and the “Events (yes/no): (%)” value [2, 4] was 2.9%. For the same compound, the “Events (yes/no): n” value [2, 4] was 4, the “Events (yes/no): (%)” value [2, 5] was 1.9% and the “Events (yes/no): n” value [2, 5] was 4. The “Events (yes/no): (%)” value [2, 6] was 0.0%, the “Events (yes/no): n” value [2, 6] was 0 and the “HDL cholesterol incr.: mean (SD)” value [3, 4] was 4.3 (6.2) mg.dL^-1. The “LDL cholesterol red.: mean (SD)” value [3, 4] was 56.8 (26.7) mg.dL^-1, the “Total cholesterol red.: mean (SD)” value [3, 4] was 53.8 (32.1) mg.dL^-1 and the “Triglyceride red.: ln(g.mean) (CV)” value [3, 4] was 7.1 (32.8) mg.dL^-1. For the same compound, the “HDL cholesterol incr.: mean (SD)” value [3, 5] was 3.9 (7.0) mg.dL^-1, the “LDL cholesterol red.: mean (SD)” value [3, 5] was 49.5 (29) mg.dL^-1 and the “Total cholesterol red.: mean (SD)” value [3, 5] was 48.3 (32.5) mg.dL^-1. The “Triglyceride red.: ln(g.mean) (CV)” value [3, 5] was 7.1 (37.2) mg.dL^-1, the “HDL cholesterol incr.: mean (SD)” value [3, 6] was 3.5 (6.6) mg.dL^-1 and the “LDL cholesterol red.: mean (SD)” value [3, 6] was 56.5 (33.6) mg.dL^-1. The “Total cholesterol red.: mean (SD)” value [3, 6] was 54.1 (35.2) mg.dL^-1 and the “Triglyceride red.: ln(g.mean) (CV)” value [3, 6] was 5.3 (38.1) mg.dL^-1.
